Measurements published in patent publication US5736539A, “Inhibitors of farnesyl-protein transferase” (Merck & Co., Inc., priority 1995, dated 1998).
Where a name gives a salt, the structure may show the parent alone.

Tests used:
[1] = target: Farnesyl-protein transferase (FPTase); test: In vitro inhibition of ras farnesyl transferase (Ras-CVLS, [3H]FPP); assay type: biochemical, bovine brain or recombinant human; conditions: Ras-CVLS 3.5 μM, 0.25 μM [3H]FPP; partially purified bovine or recombinant human enzyme; read-out: IC50 (concentration of the test compound which gives 50% inhibition of FPTase)
Experimental: Ras-CVLS at 3.5 μM, 0.25 μM [^3 H]FPP, and the indicated compounds were incubated with either a partially purified bovine enzyme preparation or a recombinant human enzyme preparation.

[2] = tested on: Ras farnesylation in the v-ras cell line (viral Ha-ras p21); test: In vivo ras farnesylation assay (v-ras cell line, immunoprecipitation, percent inhibition of farnesyl transfer to protein); assay type: cell-based; conditions: 4 h at 37° C. then additional 20 h labelling with [35S]methionine
Experimental: In vivo ras farnesylation assay
The cell line used in this assay was the v-ras line, which expressed viral Ha-ras p21. The assay was performed essentially as described in DeClue, J. E. et. al., Cancer Research 51,712-717, (1991). Cells in 10 cm dishes at 50-75% confluency were treated with the test compound (final concentration of solvent, methanol or dimethyl sulfoxide, was 0.1%). After 4 hours at 37° C., the cells were labelled in 3 ml methionine-free DMEM supplemeted with 10% regular DMEM, 2% fetal bovine serum and 400 μCi[^35 S]methionine (1000 Ci/mmol). After an additional 20 hours, the cells were lysed in 1 ml lysis buffer (1% NP40/20 mM HEPES, pH 7.5/5 mM MgCl2 /1 mM DTT/10 μg/ml aprotinen/2 μg/ml leupeptin/2 μg/ml antipain/0.5 mM PMSF) and the lysates cleared by centrifugation at 100,000×g for 45 min. Aliquots of lysates containing equal numbers of acid-precipitable counts were bought to 1 ml with IP buffer (lysis buffer lacking DTT) and immunoprecipitated with the ras-specific monoclonal antibody Y13-259 (Furth, M. E. et. al., J. Virol. 43, 294-304, (1982)). Following a 2 hour antibody incubation at 4° C., 200 μl of a 25% suspension of protein A-Sepharose coated with rabbit anti rat IgG was added for 45 min. The immunoprecipitates were washed four times with IP buffer ([…] HEPES, pH 7.5/1 mM EDTA/1% Triton X-100.0.5% deoxycholate/0.1%/SDS/0.1M NaCl) boiled in SDS-PAGE sample buffer and loaded on 13% acrylamide gels. When the dye front reached the bottom, the gel was fixed, soaked in Enlightening, dried and autoradiographed. The intensities of the bands corresponding to farnesylated and nonfarnesylated ras proteins were compared to determine the percent inhibition of farnesyl transfer to protein.

Ras farnesylation = conditions: Hancock et al.; Casey et al.; Schafer et al., Science 245:379 (1989); cited from earlier work

Row | Molecule | IC50 [1] [nM] | IC50 [2] [nM] | Inhibition of Ras farnesylation in vivo (Ras farnesylation)
1 | COCC[C@H]1CN(C(=O)c2cccc3ccccc23)CCN1C[C@@H](N)CSSC[C@H](N)CN1CCN(C(=O)c2cccc3ccccc23)C[C@@H]1CCOC [Example 21, bis-1, 1'-[2(R)-Amino-3-(2(S)-(2-methoxyethyl)-4-naphthoyl-1-piperazinyl)]propyl disulfide tetrahydrochloride] | 1 |  | 
2 | COCC[C@H]1CN(C(=O)c2cccc3ccccc23)CCN1C[C@@H](N)CS [Example 12, 1-[2(R)-Amino-3-mercaptopropyl]-4-(1-naphthoyl)-2(S)-(2-methoxyethyl)piperazine dihydrochloride] | 5 | 500 | 
3 | CCCOCC[C@H]1CN(C(=O)c2cccc3ccccc23)CCN1C[C@@H](N)CS [Example 13, 1-[2(R)-Amino-3-mercaptopropyl]-2(S)-(2-(1-propoxy)ethyl)-4-(1-naphthoyl)piperazine dihydrochloride] | 3 | 500 | 
4 | CC(=O)NCCCC[C@H]1CN(C(=O)c2cccc3ccccc23)CCN1C[C@@H](N)CS [Example 27, 1-[2(R)-Amino-3-mercaptopropyl]-4-(1-naphthoyl)-2(S)-(4-acetamidobutyl)piperazine dihydrochloride] | 3.5 | 500 | 
5 | 1-[2(R)-Amino-3-mercaptopropyl]-4-(1-naphthoyl)-2(S)-(3-methoxy-1-propyl)piperazine dihydrochloride [Example 18] | 1 |  | 
6 | CCCC[C@H]1CN(C(=O)c2cccc3cccnc23)CCN1C[C@@H](N)CS [Example 19, 1-(2(R)-Amino-3-mercaptopropyl)-2(S)-n-butyl-4-(8-quinolinylcarbonyl)piperazine trihydrochloride] | 5 | 1000 | 
7 | COC(=O)C1CN(C[C@@H](N)CS)CCN1Cc1cccc2ccccc12 (stereo partly drawn) [Example 31, Methyl 4-(2(R)-amino-3-mercaptopropyl)-l-(1-naphthylmethyl)piperazine-2-carboxylate hydrochloride] | 2.9 | 10000 | 
8 | CCCC[C@H]1CN(C(=O)c2cccc3c2OCC3)CCN1C[C@@H](N)CS [Example 17, 1-[2(R)-Amino-3-mercaptopropyl]-2(S)-n-butyl-4-[7-(2,3-dihydrobenzofuranoyl)]piperazine dihydrochloride] | 6 | 500 | 
9 | CCCC[C@H]1CN(C(=O)c2cccc3ccccc23)CCN1C[C@@H](N)CS [Example 16, 1-[2(R)-Amino-3-mercaptopropyl]-2(S)-n-butyl-4-(1-naphthoyl)piperazine dihydrochloride] | 2 | 500 | 
10 | CCCOCC[C@H]1CN(C(=O)c2cccc3cccnc23)CCN1C[C@@H](N)CS [Example 15, 1-[2(R)-Amino-3-mercaptopropyl]-2(S)-(2-(1-propoxy)ethyl)-4-(8-quinolinylcarbonyl)piperazine trihydrochloride] | 6 |  | 
11 | CC[C@H](C)C(=O)O[C@H]1CCC=C2C=C[C@H](C)[C@H](CC[C@@H]3C[C@@H](O)CC(=O)O3)[C@H]21 [compactin] |  |  | Inhibition of Ras farnesylation in vivo has been demonstrated
12 | CSCC[C@H]1CN(C(=O)c2cccc(C)c2C)CCN1C[C@@H](N)CS [Example 8, 1-[2(R)-Amino-3-mercaptopropyl]-4-(2,3-dimethylbenzoyl)-2(S)-(2-methylthioethyl)piperazine dihydrochloride] | 11 | 500 to 1000 | 
13 | CC[C@H](C)C(=O)O[C@H]1C[C@@H](C)C=C2C=C[C@H](C)[C@H](CC[C@@H]3C[C@@H](O)CC(=O)O3)[C@H]21 [lovastatin] |  |  | Inhibition of Ras farnesylation in vivo has been demonstrated
14 | Cc1cccc(C(=O)N2CCN(C[C@@H](N)CS)[C@@H](Cc3ccccc3)C2)c1C [Example 6, 1-[2(R)-Amino-3-mercaptopropyl]-2(S)-benzyl-4-(2,3-dimethylbenzoyl)piperazine dihydrochloride] | 4 | 500 to 1000 | 
15 | CCCC[C@H]1CN(C(=O)c2cccc(C)c2C)CCN1C[C@@H](N)CS [Example 3, 1-[2(R)-Amino-3-mercaptopropyl]-2(S)-n-butyl-4-(2,3-dimethylbenzoyl)piperazine dihydrochloride] | 6 | 5000 | 
16 | N[C@@H](CS)CN1CCN(C(=O)c2cccc3ccccc23)C[C@@H]1CCOCc1cccnc1 [Example 14, 1-[2(R)-Amino-3-mercaptopropyl]-2(S)-(2-(3-pyridylmethoxy)ethyl)-4-(1-naphthoyl)piperazine trihydrochloride] | 1 |  | 
17 | N[C@@H](CS)CN1CCCN(C(=O)c2cccc3ccccc23)CC1 [Example 28, 1-(2(R)-Amino-3-mercaptopropyl)-4-(1-naphthoyl)homopiperazine dihydrochloride] | 21 | 10000 | 
18 | COCC[C@H]1CN(C(=O)c2cccc(C)c2C)CCN1C[C@@H](N)CS [Example 7, 1-[2(R)-Amino-3-mercaptopropyl]-4-(2,3-dimethylbenzoyl)-2(S)-(2-methoxyethyl)piperazine dihydrochloride] |  | 500 to 1000 | 
19 | NC(CS)CN1CCN(C(=O)c2cccc3ccccc23)CC1C(=O)N1CCCCC1 [Example 30, 1-(2(R)-Amino-3-mercaptopropyl)-4-(1-naphthoyl)-2(S)-piperidylcarboxyl-4-piperazine dihydrochloride] | 3 | 500 | 
